According to patent publication US11731986B2 (Sanford Burnham Prebys Medical Discovery Institute, priority 2017, dated 2023):

Target: T1, human LMPTP-A (Homo sapiens, UniProt P24666)
T1 sequence (P24666 1-158): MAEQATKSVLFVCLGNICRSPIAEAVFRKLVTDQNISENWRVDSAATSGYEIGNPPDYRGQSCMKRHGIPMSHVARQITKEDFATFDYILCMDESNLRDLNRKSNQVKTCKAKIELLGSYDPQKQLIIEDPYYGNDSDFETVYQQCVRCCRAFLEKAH
Experiment: Enzyme Assay of Inhibition of LMPTP-A (phosphatase assay, OMFP or pNPP substrate)
Type: biochemical
Conditions: Bis-Tris pH 6.0, 37° C.
Summary of the method: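 Buffer 50 mM Bis-Tris pH 6.0, 1 mM DTT, 0.01% Triton X-100, 37 °C; OMFP read continuously (485/525 nm) or pNPP stopped with NaOH, 405 nm. IC50 from concentration vs % activity. Selectivity: 40 μM compound with 0.4 mM OMFP or 5 mM pNPP; reversibility: 50 nM enzyme, 10 μM compound, 5 min, 100× dilution.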

SMILES	IC50 [µM]
CN1CCC(CNC(=O)c2cc3cc(-c4cc(NC5CCN(C)CC5)c5cnccc5n4)ccc3n2C)CC1 [1-Methyl-5-(4-((1-methylpiperidin-4-yl)amino)-1,6-naphthyridin-2-yl)-N-((1-methylpiperidin-4-yl)methyl)-1H-indole-2-carboxamide]	≤ 1
CCN1CCN(C(=O)c2nc3cc(-c4cc(Nc5ccc(CN6CCCC6)cc5)c5cnccc5n4)ccc3[nH]2)CC1 [(4-ethylpiperazin-1-yl)(5-(4-((4-(pyrrolidin-1-ylmethyl)phenyl)amino)-1,6-naphthyridin-2-yl)-1H-benzo[d]imidazol-2-yl)methanone]	≥ 20
CN1CCC(NC(=O)COCc2ccc(-c3cc(NCCCN4CCCCC4)c4cnccc4n3)cc2)CC1 [N-(1-methylpiperidin-4-yl)-2-((4-(4-((3-(piperidin-1-yl)propyl)amino)-1,6-naphthyridin-2-yl)benzyl)oxy)acetamide]	≤ 1
O=C(NCCc1ccncc1)c1nc2cc(-c3cc(NCCCN4CCCCC4)c4cnccc4n3)ccc2[nH]1 [5-(4-((3-(piperidin-1-yl)propyl)amino)-1,6-naphthyridin-2-yl)-N-(2-(pyridin-4-yl)ethyl)-1H-benzo[d]imidazole-2-carboxamide]	≤ 1
CCN(CC)C(=O)c1nc2ccc(-c3cc(NCCCN4CCCCC4)c4cnccc4n3)cc2s1 [N,N-Diethyl-6-(4-(3-(piperidin-1-yl)propylamino)-1,6-naphthyridin-2-yl)benzo[d]thiazole-2-carboxamide]	1 to 20
O=C(NCCCN1CCCCC1)c1ccc(-c2cc(NCc3ccncc3)c3cnccc3n2)cc1 [N-(3-(Piperidin-1-yl)propyl)-4-(4-((pyridin-4-ylmethyl)amino)-1,6-naphthyridin-2-yl)benzamide]	1 to 20
CN1CCC(NC(=O)c2ccc(-c3cc(NC4CCNC4)c4cnccc4n3)cc2)CC1 (stereo not drawn) [N-(1-Methylpiperidin-4-yl)-4-(4-(pyrrolidin-3-ylamino)-1,6-naphthyridin-2-yl)benzamide]	1 to 20
CCN1CCC(CNC(=O)/C=C/c2ccc(-c3cc(NCCCN4CCCCC4)c4cnccc4n3)cc2)CC1 [(E)-N-((1-Ethylpiperidin-4-yl)methyl)-3-(4-(4-(3-(piperidin-1-yl)propylamino)-1,6-naphthyridin-2-yl)phenyl)acrylamide]	1 to 20
CN1CCC(NC(=O)/C=C/c2ccc(-c3cc(NCCCN4CCCCC4)c4cnccc4n3)s2)CC1 [(E)-N-(1-Methylpiperidin-4-yl)-3-(5-(4-(3-(piperidin-1-yl)propylamino)-1,6-naphthyridin-2-yl)thiophen-2-yl)acrylamide]	1 to 20
CCN(CC)C(=O)c1ccc(-c2cc(NCCCN3CCOCC3)c3cnccc3n2)cc1 [N,N-Diethyl-4-(4-((3-morpholinopropyl)amino)-1,6-naphthyridin-2-yl)benzamide]	1 to 20
O=C(NC1CCNCC1)c1ccc(-c2cc(NCCCN3CCCCC3)c3cnccc3n2)cc1 [4-(4-((3-(piperidin-1-yl)propyl)amino)-1,6-naphthyridin-2-yl)-N-(piperidin-4-yl)benzamide]	≤ 1
CN1CCC(NC(=O)c2nc3cc(-c4cc(NCCCN5CCCCC5)c5cnccc5n4)cnc3[nH]2)CC1 [N-(1-Methylpiperidin-4-yl)-6-(4-(3-(piperidin-1-yl)propylamino)-1,6-naphthyridin-2-yl)-3H-imidazo[4,5-b]pyridine-2-carboxamide]	≤ 1
CN1CCC(CNC(=O)CCc2ccc(-c3cc(NCCCN4CCCCC4)c4cnccc4n3)cc2)CC1 [N-((1-Methylpiperidin-4-yl)methyl)-3-(4-(4-(3-(piperidin-1-yl)propylamino)-1,6-naphthyridin-2-yl)phenyl)propanamide]	≤ 1
CCN1CCN(C(=O)c2nc3cc(-c4cc(NCCCN5CCCCC5)c5cnccc5n4)ccc3[nH]2)CC1 [(4-ethylpiperazin-1-yl)(5-(4-((3-(piperidin-1-yl)propyl)amino)-1,6-naphthyridin-2-yl)-1H-benzo[d]imidazol-2-yl)methanone]	≤ 1
CCN(CC)C(=O)c1ccc(-c2cc(NCCCN3CCN(C)CC3)c3cnccc3n2)cc1 [N,N-diethyl-4-(4-(3-(4-methylpiperazin-1-yl)propylamino)-1,6-naphthyridin-2-yl)benzamide]	1 to 20
CN1CCCC(CCNC(=O)C#Cc2ccc(-c3cc(NCCCN4CCCCC4)c4cnccc4n3)cc2)CC1 (stereo not drawn)	1 to 20
CCN(CC)C(=O)c1ccc(-c2cc(NC3CCN(C)CC3)c3cnccc3n2)cc1 [N,N-Diethyl-4-(4-((1-methylpiperidin-4-yl)amino)-1,6-naphthyridin-2-yl)benzamide]	1 to 20
CN1CCCN(CCNC(=O)COCc2ccc(-c3cc(NCCCN4CCCCC4)c4cnccc4n3)cc2)CC1 [N-(2-(4-methyl-1,4-diazepan-1-yl)ethyl)-2-(4-(4-(3-(piperidin-1-yl)propylamino)-1,6-naphthyridin-2-yl)benzyloxy)acetamide]	≤ 1
CCOC(=O)c1cc2cc(-c3cc(NCCCN4CCCCC4)c4cnccc4n3)ccc2n1C [ethyl 1-methyl-5-(4-((3-(piperidin-1-yl)propyl)amino)-1,6-naphthyridin-2-yl)-1H-indole-2-carboxylate]	≤ 1
CCN(CC)C(=O)c1nc2cc(-c3cc(NCCCN4CCCCC4)c4cnccc4n3)ccc2[nH]1 [N,N-diethyl-5-(4-((3-(piperidin-1-yl)propyl)amino)-1,6-naphthyridin-2-yl)-1H-benzo[d]imidazole-2-carboxamide]	1 to 20
CN1CCC(NC(=O)c2cc3cc(-c4cc(OCCCN5CCCCC5)c5cnccc5n4)ccc3n2C)CC1 [1-methyl-N-(1-methylpiperidin-4-yl)-5-(4-(3-(piperidin-1-yl)propoxy)-1,6-naphthyridin-2-yl)-1H-indole-2-carboxamide]	1 to 20
